In general, EC50 refers to the midpoint of the concentration-response curve. The term IC50 denotes the concentration that inhibits the measured activity by half. High values mean lower potency, low ones higher potency.

The record followed here is publication PMC4319022 (The Journal of Biological Chemistry, 2014).

Read-outs that look alike come from different tables or passages of the source.

The target in experiment [1] is T1, human α7 nAChR (Homo sapiens, UniProt P36544).
T1 construct: gene CHRNA7; full-length subunit cDNA in pSP64GL, cRNA injected in Xenopus laevis oocytes, homopentamer
Kind of experiment: two-electrode voltage clamp, Xenopus oocytes. Type of experiment: cell-based. The source says:
two-electrode voltage clamp, Xenopus oocytes on human α7 nAChR

Experiment [2] addresses T1, human α7 nAChR. Kind of experiment: two-electrode voltage clamp, Xenopus oocytes. Type of experiment: cell-based. This is another data set of the same source.

T1 sequence (P36544 23-502): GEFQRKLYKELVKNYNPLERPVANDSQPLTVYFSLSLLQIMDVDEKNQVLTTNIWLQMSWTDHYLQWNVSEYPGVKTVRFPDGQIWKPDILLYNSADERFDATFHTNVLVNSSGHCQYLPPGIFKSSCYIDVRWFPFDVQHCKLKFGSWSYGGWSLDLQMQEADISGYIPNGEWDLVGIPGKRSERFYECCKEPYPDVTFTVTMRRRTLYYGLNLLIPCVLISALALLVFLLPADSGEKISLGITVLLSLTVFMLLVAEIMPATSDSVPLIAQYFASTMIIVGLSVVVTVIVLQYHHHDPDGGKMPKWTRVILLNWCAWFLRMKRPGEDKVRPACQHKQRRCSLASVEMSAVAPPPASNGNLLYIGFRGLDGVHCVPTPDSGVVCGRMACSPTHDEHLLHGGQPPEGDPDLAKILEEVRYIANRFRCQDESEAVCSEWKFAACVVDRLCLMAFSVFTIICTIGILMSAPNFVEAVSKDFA

As to `Cc1cc(C)c(C2Nc3ccc(S(N)(=O)=O)cc3C3C=CCC32)c(C)c1C` (stereo not drawn) [2,3,4,6MP-TQS, cis-trans-4-(2,3,4,6-tetramethylphenyl)-3a,4,5,9b-tetrahydro-3H-cyclopenta[c]quinoline-8-sulfonamide], the 50% effective concentration (EC50) in experiment [1] (read-out: EC50) was found to be 9.1 ± 2 µM.

`Cc1ccc(C2Nc3ccc(S(N)(=O)=O)cc3C3C=CCC32)c(C)c1C` (stereo not drawn) [2,3,4MP-TQS, cis-cis-4-(2,3,4-trimethylphenyl)-3a,4,5,9b-tetrahydro-3H-cyclopenta[c]quinoline-8-sulfonamide]: the EC50 in experiment [1] (read-out: EC50) is 9.8 ± 0.8 µM. `Cc1cc(C)c(C)c(C2Nc3ccc(S(N)(=O)=O)cc3C3C=CCC32)c1` (stereo not drawn) [2,3,5MP-TQS, cis-cis-4-(2,3,5-trimethylphenyl)-3a,4,5,9b-tetrahydro-3H-cyclopenta[c]quinoline-8-sulfonamide]: the half-maximal effective concentration (EC50) in experiment [1] (read-out: EC50) is 3.9 ± 0.7 µM.

`Cc1ccc(C)c(C2Nc3ccc(S(N)(=O)=O)cc3C3C=CCC32)c1C` (stereo not drawn) [2,3,6MP-TQS, cis-trans-4-(2,3,6-trimethylphenyl)-3a,4,5,9b-tetrahydro-3H-cyclopenta[c]quinoline-8-sulfonamide] returned an IC50 in experiment [2] of 23 ± 2.8 µM.

As to `Cc1cc(C)c(C2Nc3ccc(S(N)(=O)=O)cc3C3C=CCC32)c(C)c1` (stereo not drawn) [2,4,6MP-TQS, cis-trans-4-mesityl-3a,4,5,9b-tetrahydro-3H-cyclopenta[c]quinoline-8-sulfonamide], half-maximal inhibition in experiment [2] (IC50) required 5.2 ± 0.8 µM. Consider `Cc1ccc(C2Nc3ccc(S(N)(=O)=O)cc3C3C=CCC32)c(C)c1` (stereo not drawn) [2,4MP-TQS, cis-cis-4-(2,4-dimethylphenyl)-3a,4,5,9b-tetrahydro-3H-cyclopenta[c]quinoline-8-sulfonamide], for which, in experiment [1] (read-out: EC50), the EC50 turned out to be 11 ± 1 µM.

As to `Cc1cccc(C)c1C1Nc2ccc(S(N)(=O)=O)cc2C2C=CCC21` (stereo not drawn) [2,6MP-TQS, cis-trans-4-(2,6-dimethylphenyl)-3a,4,5,9b-tetrahydro-3H-cyclopenta[c]quinoline-8-sulfonamide], the IC50 in experiment [2] was determined as 43 ± 14 µM. As for `Cc1ccccc1C1Nc2ccc(S(N)(=O)=O)cc2C2C=CCC21` (stereo not drawn) [2MP-TQS, cis-cis-4-o-tolyl-3a,4,5,9b-tetrahydro-3H-cyclopenta[c]quinoline-8-sulfonamide], the EC50 in experiment [1] (read-out: EC50) worked out at 16 ± 1.3 µM. Turning to `Cc1ccc(C2Nc3ccc(S(N)(=O)=O)cc3C3C=CCC32)cc1C` (stereo not drawn) [3,4MP-TQS, cis-cis-4-(3,4-dimethylphenyl)-3a,4,5,9b-tetrahydro-3H-cyclopenta[c]quinoline-8-sulfonamide], the Imax in experiment [1] (100 μM, allosteric agonist, relative to 3 mM acetylcholine, -60 mV) worked out at 7.8 ± 3.0 fold effect. Consider `Cc1cc(C)cc(C2Nc3ccc(S(N)(=O)=O)cc3C3C=CCC32)c1` (stereo not drawn) [3,5MP-TQS, cis-cis-4-(3,5-dimethylphenyl)-3a,4,5,9b-tetrahydro-3H-cyclopenta[c]quinoline-8-sulfonamide], for which the 50% effective concentration (EC50) in experiment [1] (read-out: EC50) was found to be 3.7 ± 1.2 µM.

`Cc1cccc(C2Nc3ccc(S(N)(=O)=O)cc3C3C=CCC32)c1` (stereo not drawn) [3MP-TQS, cis-cis-4-m-tolyl-3a,4,5,9b-tetrahydro-3H-cyclopenta[c]quinoline-8-sulfonamide]: in experiment [1] (allosteric potentiation (type II PAM) of 100 μM acetylcholine, maximal PAM concentration (100 μM, Figure 4), -60 mV), the Fold potentiation was 22 ± 2.1 fold.

As to `Cc1ccc(C2Nc3ccc(S(N)(=O)=O)cc3C3C=CCC32)cc1` (stereo not drawn) [4MP-TQS, cis-cis-4-p-tolyl-3a,4,5,9b-tetrahydro-3H-cyclopenta[c]quinoline-8-sulfonamide], the EC50 in experiment [1] (read-out: EC50) stood at 27 ± 3.1 µM. `Cc1c(C)c(C)c(C2Nc3ccc(S(N)(=O)=O)cc3C3C=CCC32)c(C)c1C` (stereo not drawn) [PentaMP-TQS, cis-trans-4-(2,3,4,5,6-pentamethylphenyl)-3a,4,5,9b-tetrahydro-3H-cyclopenta[c]quinoline-8-sulfonamide]: in experiment [1] (allosteric potentiation (type I PAM) of 100 μM acetylcholine, 10 s preapplication, -60 mV, bell-shaped curve, unreliable), the half-maximal effective concentration (EC50) amounted to 0.55 ± 0.36 µM.
